BindingDB's records for patent US20250215012 (University of Michigan, 2025)

Target: DNA damage-binding protein 1/Protein cereblon (Homo sapiens, UniProt Q96SW2)
Assay: Not found
From the text: Not found

DNA damage-binding protein 1/Protein cereblon, sequence (Q16531 whole entry): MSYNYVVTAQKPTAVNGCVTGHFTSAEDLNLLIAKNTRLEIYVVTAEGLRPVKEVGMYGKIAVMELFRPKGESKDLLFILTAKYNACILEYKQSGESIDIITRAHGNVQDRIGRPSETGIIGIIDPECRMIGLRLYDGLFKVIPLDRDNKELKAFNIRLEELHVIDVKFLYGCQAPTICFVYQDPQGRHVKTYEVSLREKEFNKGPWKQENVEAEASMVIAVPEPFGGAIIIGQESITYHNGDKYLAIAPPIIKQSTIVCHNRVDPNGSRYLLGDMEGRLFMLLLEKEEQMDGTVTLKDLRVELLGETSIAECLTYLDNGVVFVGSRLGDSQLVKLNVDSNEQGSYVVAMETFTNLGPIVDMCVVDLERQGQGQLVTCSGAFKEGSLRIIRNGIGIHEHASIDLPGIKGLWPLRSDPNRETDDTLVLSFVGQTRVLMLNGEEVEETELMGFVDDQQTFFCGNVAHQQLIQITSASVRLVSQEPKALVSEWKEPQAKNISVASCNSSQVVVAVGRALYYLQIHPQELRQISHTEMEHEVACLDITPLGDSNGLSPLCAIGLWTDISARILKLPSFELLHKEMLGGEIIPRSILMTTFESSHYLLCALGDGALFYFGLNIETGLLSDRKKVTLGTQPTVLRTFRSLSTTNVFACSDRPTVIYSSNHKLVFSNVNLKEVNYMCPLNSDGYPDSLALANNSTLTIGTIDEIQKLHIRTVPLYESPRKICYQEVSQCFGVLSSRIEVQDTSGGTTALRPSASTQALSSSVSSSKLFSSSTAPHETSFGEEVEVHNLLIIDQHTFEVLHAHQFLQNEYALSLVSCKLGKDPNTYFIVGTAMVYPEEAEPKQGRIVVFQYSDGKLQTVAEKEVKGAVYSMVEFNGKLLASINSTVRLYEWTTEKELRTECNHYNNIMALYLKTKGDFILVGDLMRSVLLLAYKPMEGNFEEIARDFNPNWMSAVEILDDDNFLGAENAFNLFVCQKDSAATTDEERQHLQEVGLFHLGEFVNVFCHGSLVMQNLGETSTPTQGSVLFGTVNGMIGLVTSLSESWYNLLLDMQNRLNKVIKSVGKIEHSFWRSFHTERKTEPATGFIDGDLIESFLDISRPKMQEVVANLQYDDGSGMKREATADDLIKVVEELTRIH
DNA damage-binding protein 1/Protein cereblon, sequence (Q96SW2 whole entry): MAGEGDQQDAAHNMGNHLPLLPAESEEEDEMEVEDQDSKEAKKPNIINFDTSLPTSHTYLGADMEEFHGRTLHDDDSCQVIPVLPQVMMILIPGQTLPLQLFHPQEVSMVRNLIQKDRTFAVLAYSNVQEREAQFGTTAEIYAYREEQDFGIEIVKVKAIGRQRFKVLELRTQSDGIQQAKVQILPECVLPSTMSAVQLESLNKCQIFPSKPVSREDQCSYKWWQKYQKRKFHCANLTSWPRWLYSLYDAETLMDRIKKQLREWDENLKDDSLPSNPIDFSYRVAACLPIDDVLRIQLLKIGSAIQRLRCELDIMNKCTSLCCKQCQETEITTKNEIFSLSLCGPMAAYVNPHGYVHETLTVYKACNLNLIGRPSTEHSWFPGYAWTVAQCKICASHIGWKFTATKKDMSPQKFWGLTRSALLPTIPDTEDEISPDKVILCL

Compound: O=C1CC[C@H](N2Cc3c(ccc4c3OCC43CCN(Cc4ccc5cn[nH]c5c4)CC3(F)F)C2=O)C(=O)N1 (some centres not stated) [US20250215012, Example B33]
- IC50: 100 to 500 nM

Compound: Cn1ncc2ccc(CN3CCC4(COc5c4ccc4c5CN([C@H]5CCC(=O)NC5=O)C4=O)C(F)(F)C3)cc21 (some centres not stated) [US20250215012, Example B34]
- IC50: 100 to 500 nM
